Data taken from patent US12370235B2, “Synthetic, non-natural antimicrobial peptides inspired by Staphylococcus auricularis delta toxin” (University of Saskatchewan, priority 2021, dated 2025).
Ends that are not written are not given here.

Tested on: Mannheimia haemolytica ATCC 33393
Test: MIC, broth dilution
Type: cell-based
Details: Table 11; highest concentration 25 μg/mL
In short: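 Peptides (95% purity) in 2-fold dilution series were mixed with M. haemolytica diluted to OD 6×10^−4 in cation-adjusted Mueller Hinton broth and incubated standing overnight at 37 °C. MIC was the lowest concentration with no visible growth.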

With “TVGGLVKWILKTVKKFA-NH2 [STIP3-29, TVGGLVKWILKTVKKFA-NH2]” as the substance, how does the “MIC (μg/mL) M. haemolytica” value read?
The value was 25 µg/mL.
